Results on 5 molecules are retold here after patent US20230183263A1, “COMBINATION FOR TREATING HEPATITIS B” (FUJIAN AKEYLINK BIOTECHNOLOGY CO., LTD., priority 2020, published 2023).

The subject of data set [1] is D-type HBV. As to the kind of experiment: Single drug in vitro antiviral activity in HBV-infected PHH (HBV DNA qPCR, HBeAg and HBsAg ELISA). Type of data set: cell-based, Hepatitis B Virus. Particulars: for EC50: Hepatitis B virus, 192 h, Day 8. How it is done: 1. The PHH model was used to evaluate the single drug in vitro antiviral activity of the test compound
On day 0, primary human hepatocytes were resuscitated and plated into two 48-well plates (1.32×10^5 cells/well).
On day 1, HBV was added to infect PHH (2000 GE/cell). […] Fresh medium with compound was replaced every 1 to 2 days.
The final concentration of DMSO in the medium was 2%.
The medium was replaced with the fresh medium containing the compound on days 4, 6, 8, 10, 12, 14, 16, 18 and 20. On day 22, the culture supernatant was collected and cell viability was detected using CellTiter-Glo.
Cell culture supernatants on days 8, 14 and 22 were collected for HBV DNA, HBeAg and HBsAg detection.
(§1) HBV DNA detection: DNA in the supernatant was extracted according to the DNA extraction kit (Qiagen-51162), and HBV DNA in the sample was quantified by qPCR method, and the qPCR reaction system is shown in Table 6. HBV plasmid DNA was used as a standard for 10-fold serial dilution, and the standard range was from 1.0× 10^7 copies/µL to 10 copies/µL. The PCR reaction program was: Heating at 95° C. for 10 minutes, then cycle mode was entered, and heating at 95° C. for 15 seconds, then at 60° C. for 1 minute for a total of 40 cycles. The HBV DNA content in the samples was calculated based on the standard curve and the Ct value of each sample.
(§2) Detection of HBeAg and HBsAg: According to the instructions of ELISA kit, the levels of HBeAg and HBsAg in supernatant were detected. The method was briefly described as follows: 50 µL, of standard was taken, and sample and control sample were added into the detection plate, then 50 µL of enzyme conjugate was added to each well, incubated at 37° C. for 60 minutes, and washed with a washing solution and then dried, and then 50 µL of pre-mixed luminescent substrate was added and the mixture was incubated at room temperature for 10 minutes in the dark, and finally the luminescence value was measured by a microplate reader. The content of HBeAg and HBsAg in the sample was calculated according to the standard curve and the chemiluminescence value of each sample.
(§3) Inhibition rate %=(1- HBV DNA content or HBsAg content or HBeAg content in the sample/HBV DNA content or HBsAg content or HBeAg content in DMSO control group) × 100
CC50 and EC50 were calculated by GraphPad Prism software, and the inhibition curve fitting method was sigmoidal dose-response (variable slope).

Data set [2] in a line: Cell viability of PHH by CellTiter-Glo. The data set is classed as cell-based, human. Particulars: human, primary human hepatocytes (PHH), HBV infection model, administration after infection, Day 22. How it is done: (§4) The medium was replaced with the fresh medium containing the compound on days 4, 6, 8, 10, 12, 14, 16, 18 and 20. On day 22, the culture supernatant was collected and cell viability was detected using CellTiter-Glo. The final concentration of DMSO in the cell medium was 2%. The medium was replaced with the medium containing the compound on days 4 and 6. On day 8, the culture supernatant was collected for detecting HBV DNA, HBeAg and HBsAg, and then the collected supernatant was added with CellTiter-Glo to measure cell viability. The final concentration of DMSO in the medium was 2%. The medium was replaced with the medium containing the compound on days 4 and 6. On day 8, the culture supernatant was collected for detecting HBV DNA, HBeAg and HBsAg, and then the collected cell supernatant was added with CellTiter-Glo to measure cell viability. Cell viability detection: After collecting the cell culture supernatant, CellTiter-Glo was diluted with medium at a ratio of 1:1, and added to the cell plate, and left at room temperature for 10 minutes to detect the luminescence value with a microplate reader. Cell activity% = (luminescence value of sample-average value of blank control well)/(luminescence value of DMSO control group-average value of blank control well) × 100 CC50 and EC50 were calculated by GraphPad Prism software, and the inhibition curve fitting method was sigmoidal dose-response (variable slope).
A general note: Cellular ATP, detected with luciferase, serves as a proxy for viable cell number.

Data set [3] has as its system human primary hepatocytes (PHH). Put plainly: Cell viability of PHH by CellTiter-Glo. Type of data set: cell-based. Here is the method: as §4
Data set [4] deals with D-type HBV. Put plainly: Single drug anti-HBV activity in HepG2-NTCP in vitro infection model. Type of data set: cell-based, Hepatitis B Virus. The conditions noted are these: for EC50: Hepatitis B virus, 216 h, HepG2-NTCP. Here is the method:
(§5) In this study, HepG2-NTCP cell in vitro infection model was used to evaluate the inhibitory activity of a combined administration of compound WWSO with Entecavir (ETV) on HBV The content of HBV DNA in cell supernatant was detected by real-time quantitative PCR (qPCR) method, and the content of HBeAg and HBsAg was detected by ELISA, and the anti-HBV activity of the combined action of the compound was determined, while CellTiter-Glo was used to detect the effect of the test compound on cell viability.
(§6) Cell line: HepG2-NTCP cell line was constructed and provided by WuXi AppTec. HepG2-NTCP cells were HepG2 cells stably transfected and continued to highly express the human NTCP gene, and were susceptible to be infected by HBV The cell medium was DMEM medium added with 10% fetal bovine serum, 1% Penicillin-Streptomycin, 1% glutamine, 1% non-essential amino acids and G418 (500 µg/mL).
Virus: D-type HBV was concentrated from HepG2.2.15 cell culture supernatants.
2.1 On day 0, HepG2-NTCP cells were seeded into a 48-well cell culture plate at a density of 75,000 cells/well, and then the cells were cultured at 5% CO2 and 37° C. overnight.
2.2 On day 2, HBV was added to infect HepG2-NTCP cells.
2.3 On day 3, WWSO and ETV single drugs were administered at seven different concentrations, respectively, or WWSO in combination with ETV was administered at 5 different concentrations in orthorhombic proportion, added to 48-well plates with each combination having three duplicate plates.
2.4 On day 6, the cell supernatant was discarded and fresh medium containing the compounds was added, and the cells were cultured at 5% CO2 and 37° C. for 3 days.
(§7) 2.5 On day 9, cell plate supernatant treated by compound was collected and DNA was extracted according to the QIAamp 96 DNA Blood Kit (12) instructions. HBeAg and HBsAg were detected according to the instructions of ELISA detection kit, meanwhile, the cytotoxicity of compound pairs was detected by CellTiter-Glo kit, and the chemiluminescence intensity (RLU) of each cell well was detected by multifunctional microplate reader according to the method of kit instructions. HBV DNA was quantified by qPCR method. HBV plasmid DNA was used as the standard, and standard HBV plasmid DNA concentration was diluted 7 points starting from 10^7 copies/µL at a 10-fold gradient. The HBV DNA copy number was calculated in each test sample by fitting the standard curve using the HBV DNA copy number and CT values of each standard.

Data set [5] in a line: Cytotoxicity in HepG2-NTCP cells by CellTiter-Glo. The conditions noted are these: human, single drug, day 9. Type of data set: cell-based, human. How it is done:
as §5, §6, §7

For data set [6], the system named is HepG2-NTCP cells. As to the kind of experiment: Cytotoxicity in HepG2-NTCP cells by CellTiter-Glo. The data set is classed as cell-based, human. The conditions noted are these: single drug and combined action experiments. How it is done: as §5, §6, §7
Data set [7] has as its system D-type HBV. Put plainly: Combined administration in HBV-infected PHH, 5x5 matrix, MacSynergy II analysis. Type of data set: cell-based, Hepatitis B Virus. Particulars: two-drug combination with Peg-IFNα-2a; for antagonistic index (inhibition of HBsAg and HBeAg): 95% confidence interval. Here is the method: On day 0, primary human hepatocytes were resuscitated and plated into six 48-well plates (1.32×10^5 cells/well).
On day 1, […] (2000 GE/cell). On the second day, different groups of combined drugs were added for treatment:
The arrangement of the compounds in the combined action is shown in Table 2, and the test concentrations of the compounds are shown in Table 3.
The final concentration of DMSO in the cell medium was 2%. The medium was replaced with the medium containing the compound on days 4 and 6. On day 8, the culture supernatant was collected for detecting HBV DNA, HBeAg and HBsAg, and then the collected supernatant was added with CellTiter-Glo to measure cell viability.
The arrangement of the compounds in the combined action is shown in Table 4, and the test concentrations of the compounds are shown in Table 5.
The final concentration of DMSO in the medium was 2%. The medium was replaced with the medium containing the compound on days 4 and 6. On day 8, the culture supernatant was collected for detecting HBV DNA, HBeAg and HBsAg, and then the collected cell supernatant was added with CellTiter-Glo to measure cell viability.
as §1, §2, §3
Combined efficacy was analyzed by MacSynergy™ II software.

For the molecule `COCCCOc1cc2c(cc1Cl)-c1cc(=O)c(C(=O)O)cn1[C@H](c1cccs1)O2` [WWS0], the EC50 (usually the midpoint of the concentration-response curve) in data set [1] (PHH, administration after infection, read-out: EC50 (Day 8) HBV DNA) was 45.5 nM; in data set [1] (PHH, administration after infection, read-out: EC50 (Day 8) HBeAg) it was 32.4 nM; in data set [1] (PHH, administration after infection, read-out: EC50 (Day 8) HBsAg), 47.3 nM; in data set [1] (PHH, administration before infection, read-out: EC50 (Day 8) HBV DNA) it was 13.5 nM; in data set [1] (PHH, administration before infection, read-out: EC50 (Day 8) HBeAg), 26 nM; in data set [1] (PHH, administration before infection, read-out: EC50 (Day 8) HBsAg) it was 47.1 nM. The EC50 in data set [4] (day 9, read-out: HBV DNA EC50) stood at 1.01 nM; in data set [4] (day 9, read-out: HBeAg EC50), 2.51 nM; in data set [4] (day 9, read-out: HBsAg EC50), 3.19 nM. In addition, the “inhibition of HBV DNA, HBeAg and HBsAg” value is given as “dose-dependent manner” in data set [1] (PHH in vitro infection model, single drug) and “dose-dependent manner” in data set [4] (HepG2-NTCP infected by HBV). Moreover, the “inhibition of HBV replication, administration before versus after HBV infection” value in data set [1] (PHH, two modes of administration compared) is “basically the same”. Moreover, the CC50 (in general, the concentration giving 50% cytotoxicity) at 22 day of experiment (read-out) in data set [2] is > 1000 nM. For the same molecule, the CC50 in data set [3] (administration before infection, Day 22) was > 1000 nM. In addition, the “cytotoxicity within the test concentration range” value in data set [3] (single drug and combined action experiment) is on record as “no obvious cytotoxicity”; in data set [6], “no obvious cytotoxicity”. Also, in data set [5], the CC50 at 9 day of experiment (read-out) was > 100 nM.

Turning to `C=C1[C@H](CO)[C@@H](O)C[C@@H]1n1cnc2c(=O)[nH]c(N)nc21` [ETV, Entecavir, reference compound], the EC50 is 0.06 nM in data set [4] (day 9, read-out: HBV DNA EC50); > 20 nM in data set [4] (day 9, read-out: HBeAg EC50); > 20 nM in data set [4] (day 9, read-out: HBsAg EC50). In addition, the CC50 at 9 day of experiment (read-out) in data set [5] is > 20 nM.

In the case of `O=C(O)c1cn2c(cc1=O)-c1cc(Cl)c(OCC3CC3)cc1O[C@H]2c1scnc1Cl` [WWS03], in data set [7], the “combined effect on the inhibition of HBsAg and HBeAg” value (from here on “combined effect on the inhibition”) is “synergistic or additive effects”; the “antagonistic index (inhibition of HBsAg and HBeAg)” value was found to be 0.

Regarding `O=C(O)c1cn2c(cc1=O)-c1cc(Cl)c(OCCN3CCOCC3)cc1OC2c1ccccc1` (stereo not drawn) [WWS01], in data set [7], the “combined effect on the inhibition” value was “synergistic or additive effects”; the “antagonistic index (inhibition of HBsAg and HBeAg)” value is 0.

Regarding `COCCCOc1cc2c(cc1OC)-c1cc(=O)c(C(=O)O)cn1[C@H](c1sccc1Cl)O2` [WWS02], in data set [7], the “combined effect on the inhibition” value was “synergistic or additive effects”; the “antagonistic index (inhibition of HBsAg and HBeAg)” value amounted to 0.
